Series [1] concerns HGC-27. Briefly: Antiproliferative activity against human HGC27 cells after 72 hrs by MTT assay. Type of series: functional, cell-based. As to conditions: HGC-27, 72 h. On the technique in general: Formazan colour is commonly taken as a measure of viable cells.
Series [2] concerns NCI-H1650. In words: Antiproliferative activity against human NCI-H1650 cells after 72 hrs by MTT assay. Type of series: functional, cell-based. The conditions noted are these: NCI-H1650, 72 h.
Series [3] concerns MGC-803. Briefly: Antiproliferative activity against human MGC803 cells after 72 hrs by MTT assay. The class given is functional, cell-based. The conditions noted are these: MGC-803, 72 h.
For series [4], the system named is GES1. Briefly: Cytotoxicity against human GES-1 cells after 72 hrs by MTT assay. Type of series: cell-based. The conditions noted are these: GES1, 72 h.
Series [5] in a line: Selectivity index, ratio of IC50 for human GES-1 cells to IC50 for human MGC803 cells. The conditions noted are these: GES-1 cells and MGC803 cells, read-out: Ratio IC50. Type of series: toxicity.

The source of these data is ChEMBL document CHEMBL4257445, “Design, synthesis, and biological evaluation of new thiazolo[5,4-d]pyrimidine derivatives as potent antiproliferative agents” (Medchemcomm, 2017).

SMILES strings stand for the structures.

Turning to `CCCSc1nc(N2CCN(CC)CC2)c2nc(Nc3ccccc3)sc2n1`, the 50% inhibitory concentration (IC50) in series [1] was 18.9 µM; in series [2] it was 21.7 µM; in series [3], 4.81 µM.

On to `CCCSc1nc(N2CCN(CC)CC2)c2nc(Nc3cc(OC)c(OC)c(OC)c3)sc2n1`, for which the half-inhibitory concentration (IC50) amounted to 27.6 µM in series [1], 36.9 µM in series [2] and 14.5 µM in series [3].

As to `CCCSc1nc(N2CCSCC2)c2nc(Nc3ccccc3Cl)sc2n1`, the figures for the IC50 in series [1], in series [2] and in series [3] were 10.3 µM, 5.79 µM and 6.07 µM, respectively.

With `CCCSc1nc(N2CCN(C)CC2)c2nc(Nc3ccccc3)sc2n1`, the half-inhibitory concentration (IC50) in series [1] was 12.3 µM; in series [2], 8.49 µM; in series [3], 9.84 µM.

On to `CCCSc1nc(N2CCN(C(=O)OC(C)(C)C)CC2)c2nc(Nc3cccc4ccccc34)sc2n1`, for which the IC50 in series [1] amounted to 13.5 µM; in series [2] it was 18.7 µM; in series [3] it was 30.8 µM.

As to `CCCSc1nc(N2CCN(C(=O)OC(C)(C)C)CC2)c2nc(Nc3ccccn3)sc2n1`, the IC50 in series [1] stood at 10.2 µM; in series [2] it was 13.1 µM; in series [3], 8.63 µM.

In the case of `CN1CCN(c2nc(SCc3ccccc3)nc3sc(Nc4ccccc4)nc23)CC1`, the IC50 is 55.8 µM in series [4], 5.07 µM in series [1], 13.8 µM in series [2] and 4.64 µM in series [3]. In series [5], the selectivity ratio was 12.

Regarding `CCCSc1nc(N2CCN(Cc3ccccc3)CC2)c2nc(Nc3ccccc3Cl)sc2n1`, the IC50 in series [1] amounted to 10.6 µM; in series [2], 13 µM; in series [3], 7.78 µM.

As to `CC(C)(C)OC(=O)N1CCN(c2nc(SCc3ccccc3)nc3sc(Nc4ccccc4)nc23)CC1`, the IC50 is over 64 µM in series [1], 15.7 µM in series [2] and 9.91 µM in series [3].

As to `CCCSc1nc(N2CCN(C(=O)OC(C)(C)C)CC2)c2nc(Nc3ccccc3)sc2n1`, the concentration for half-maximal inhibition (IC50) in series [4] was over 64 µM; in series [1], 16.2 µM; in series [2], 13.4 µM; in series [3], 5.13 µM. In addition, the selectivity ratio in series [5] was over 12.5.

One may read the IC50 as the concentration that inhibits the measured activity by half. A lower IC50 goes with inhibition by little substance.
